# In paper PMC10611828 (European Journal of Nuclear Medicine and Molecular Imaging, 2023):
# Read-outs that look alike come from different tables or passages of the source.
# Tests used:
# [1] = Stability in mouse serum at 37 °C (radio-HPLC); assay type: in vitro ADME; details: read-out: intact radiolabeled ligand (RCP)
# Procedure: (§1) The ^177Lu-labeled peptides were incubated in 300-μL phosphate buffered saline (PBS; Gibco, ThermoFisher, The Netherlands) at 37 °C, and their stability was verified after 1, 4, 24, 48, and 72 h by radio-HPLC (Supplementary Fig. 2). The stability in serum was determined by incubating the radiolabeled compounds into 300 μL of mouse serum (Invitrogen, USA) or human serum (Sigma Aldrich, USA) at 37 °C (Supplementary Fig. 3, 4). At each time point post-incubation, 35 μL of the mixture was added to an Eppendorf tube, and the proteins were precipitated by adding an equal volume of acetonitrile. The tubes were centrifuged at 16,000 rpm, 4 °C for 20 min, and the stability was monitored by radio-HPLC, expressed as the RCP at the different time points.
# [2] = Stability in human serum at 37 °C (radio-HPLC); assay type: in vitro ADME; details: read-out: intact radiolabeled ligand (RCP)
# Procedure: as §1
# [3] = In vivo biodistribution and clearance in PC-3 tumor-bearing mice; details: male, NMRI-Foxn1 nu/nu, mouse, iv, total radioactivity, i.v.; for tissue uptake at 1 h: 1 h p.i.; for tissue uptake at 4 h: 4 h p.i.; for tissue uptake at 24 h: 24 h p.i.; for tissue uptake at 48 h: 48 h p.i.; for tissue uptake at 72 h: 72 h p.i.
# Procedure: All animal experiments were approved by the Animal Welfare Committee of the Erasmus MC, and all experiments were conducted in accordance to institutional guidelines.
# At 1, 4, 24, 48, and 72 h post-injection (p.i.), animals were sedated using 2.5% isoflurane in oxygen, and blood was collected via the orbital vein, after which the animals were euthanized using cervical dislocation. Subsequently, the following organs were collected; the tail, tumor, spleen, liver, pancreas, small intestine, colon, coecum, kidneys, lung, and muscle. […] The collected tumor and organs were weighed, and the radioactivity was measured in the gamma counter. The biodistribution data are expressed as percentage injected dose per gram of tissue (% ID/g). Animal numbers per group are indicated in Supplementary Table 1 and 2.
# Statistical analysis was performed using Graphpad Prism version 9.0.0. Outliers were identified using the ROUT method with a Q value of 1%. IC50 curves were determined using non-linear regression.
# [4] = PC-3 tumor, read-out: % uptake PC-3 tumor
# [5] = gastrointestinal tract, read-out: % uptake gastrointestinal tract
# [6] = kidney, read-out: % uptake kidney
# [7] = liver, read-out: % uptake liver
# [8] = muscle, read-out: % uptake muscle
# [9] = pancreas, read-out: % uptake pancreas
# [10] = prostate, read-out: % uptake prostate
# [11] = spleen, read-out: % uptake spleen
smiles,measurement,setting,value
"CC(C)C[C@H](NC(=O)C[C@H](O)[C@H](CC(C)C)NC(=O)[C@H](Cc1c[nH]cn1)NC(=O)CNC(=O)[C@@H](NC(=O)[C@H](C)NC(=O)[C@H](Cc1c[nH]c2ccccc12)NC(=O)[C@H](CCC(N)=O)NC(=O)[C@@H](Cc1ccccc1)NC(=O)CN1CCC(NC(=O)CN2CCN(CC(=O)O)CCN(CC(=O)O)CCN(CC(=O)O)CC2)CC1)C(C)C)C(N)=O [[^177Lu]Lu-RM2, metal not drawn]",remaining at 1 h,[1]; 1 h,90.9 ± 0.5%
same,remaining at 24 h,[1]; 24 h,29.6 ± 1.2%
same,remaining at 48 h,[1]; 48 h,17.1 ± 3.5%
same,remaining at 72 h,[1]; 72 h,5.3 ± 0.9%
same,remaining at 1 h,[2]; 1 h,96.7 ± 0.7%
same,remaining at 4 h,[2]; 4 h,95.5 ± 1.1%
same,remaining at 24 h,[2]; 24 h,94.9 ± 1.5%
same,remaining at 48 h,[2]; 48 h,92.3 ± 1.9%
same,remaining at 72 h,[2]; 72 h,88.4 ± 0.6%
same,tissue uptake at 1 h,[3]; [4],9.27 ± 1.81 %ID/g
same,tissue uptake at 4 h,[3]; [4],9.14 ± 0.94 %ID/g
same,tissue uptake at 24 h,[3]; [4],7.32 %ID/g
same,tissue uptake at 48 h,[3]; [4],5.47 %ID/g
same,tissue uptake at 72 h,[3]; [4],2.97 %ID/g
same,tissue uptake at 1 h,"[3]; blood, read-out: % uptake blood",0.3 %ID/g
same,tissue uptake at 1 h,[3]; [5],1.75 %ID/g
same,tissue uptake at 4 h,[3]; [5],0.56 %ID/g
same,tissue uptake at 24 h,[3]; [5],0.05 %ID/g
same,tissue uptake at 48 h,[3]; [5],0.03 %ID/g
same,tissue uptake at 72 h,[3]; [5],0.01 %ID/g
same,tissue uptake at 1 h,[3]; [6],3 %ID/g
same,tissue uptake at 4 h,[3]; [6],1.69 %ID/g
same,tissue uptake at 24 h,[3]; [6],0.63 %ID/g
same,tissue uptake at 48 h,[3]; [6],0.26 %ID/g
same,tissue uptake at 72 h,[3]; [6],0.12 %ID/g
same,tissue uptake at 1 h,[3]; [7],0.2 %ID/g
same,tissue uptake at 4 h,[3]; [7],0.09 %ID/g
same,tissue uptake at 24 h,[3]; [7],0.04 %ID/g
same,tissue uptake at 48 h,[3]; [7],0.03 %ID/g
same,tissue uptake at 72 h,[3]; [7],0.02 %ID/g
same,tissue uptake at 1 h,"[3]; lung, read-out: % uptake lungs",0.3 %ID/g
same,tissue uptake at 4 h,"[3]; lung, read-out: % uptake lungs",0.04 %ID/g
same,tissue uptake at 24 h,"[3]; lung, read-out: % uptake lungs",0.02 %ID/g
same,tissue uptake at 48 h,"[3]; lung, read-out: % uptake lungs",0.01 %ID/g
same,tissue uptake at 72 h,"[3]; lung, read-out: % uptake lungs",0.01 %ID/g
same,tissue uptake at 1 h,[3]; [8],0.06 %ID/g
same,tissue uptake at 4 h,[3]; [8],0.01 %ID/g
same,tissue uptake at 24 h,[3]; [8],0.01 %ID/g
same,tissue uptake at 1 h,[3]; [9],14.4 ± 2.56 %ID/g
same,tissue uptake at 4 h,[3]; [9],2.07 ± 0.3 %ID/g
same,tissue uptake at 24 h,[3]; [9],0.25 %ID/g
same,tissue uptake at 48 h,[3]; [9],0.14 %ID/g
same,tissue uptake at 72 h,[3]; [9],0.05 %ID/g
same,tissue uptake at 1 h,[3]; [10],1.08 %ID/g
same,tissue uptake at 4 h,[3]; [10],0.03 %ID/g
same,tissue uptake at 24 h,[3]; [10],0.03 %ID/g
same,tissue uptake at 48 h,[3]; [10],0.02 %ID/g
same,tissue uptake at 72 h,[3]; [10],0.01 %ID/g
same,tissue uptake at 1 h,[3]; [11],0.19 %ID/g
same,tissue uptake at 4 h,[3]; [11],0.06 %ID/g
same,tissue uptake at 24 h,[3]; [11],0.04 %ID/g
same,tissue uptake at 48 h,[3]; [11],0.03 %ID/g
same,tissue uptake at 72 h,[3]; [11],0.02 %ID/g
